Results from the NIST ThermoML archive (doi:10.1016/j.jct.2014.09.020).
Numbers after ± are expanded uncertainties.

Test: xn = mol fraction of the nth substance listed
Conditions: Liquid; for speed of sound: Frequency=4 MHz, Single path-length method; for mass density: Vibrating tube method

c1ccc2c(c1)CCCC2 [1,2,3,4-tetrahydronaphthalene] + CCCCCCCCCC
Conditions | mass density, 100 kPa [kg/m3] | speed of sound, 100 kPa [m/s] | speed of sound, 5000 kPa [m/s] | speed of sound, 10000 kPa [m/s] | speed of sound, 15000 kPa [m/s] | speed of sound, 20000 kPa [m/s] | speed of sound, 25000 kPa [m/s]
313.15 K, x2 = 0 | 952.93 ± 1.2 | 1413 ± 2 | 1434 ± 3 | 1455 ± 3 | 1475 ± 3 | 1495 ± 3 | 1513 ± 3
313.15 K, x2 = 0.2501 | 877.12 ± 1.1 | 1331 ± 2 | 1356 ± 2 | 1380 ± 2 | 1402 ± 2 | 1424 ± 2 | 1445 ± 2
313.15 K, x2 = 0.5005 | 813.93 ± 1.1 | 1265 ± 2 | 1293 ± 2 | 1319 ± 2 | 1346 ± 2 | 1370 ± 2 | 1394 ± 2
313.15 K, x2 = 0.7502 | 760.5 ± 1 | 1214 ± 2 | 1244 ± 2 | 1273 ± 2 | 1302 ± 2 | 1329 ± 2 | 1354 ± 2
323.15 K, x2 = 0 | 944.99 ± 1.2 | 1374 ± 2 | 1397 ± 3 | 1419 ± 3 | 1439 ± 3 | 1459 ± 3 | 1480 ± 3
323.15 K, x2 = 0.2501 | 869.27 ± 1.1 | 1291 ± 2 | 1317 ± 2 | 1342 ± 2 | 1365 ± 2 | 1389 ± 2 | 1411 ± 2
323.15 K, x2 = 0.5005 | 806.15 ± 1.1 | 1228 ± 2 | 1255 ± 2 | 1283 ± 2 | 1310 ± 2 | 1336 ± 2 | 1361 ± 2
323.15 K, x2 = 0.7502 | 752.77 ± 1 | 1175 ± 2 | 1207 ± 2 | 1238 ± 2 | 1268 ± 2 | 1296 ± 2 | 1321 ± 2
333.15 K, x2 = 0 | 937.04 ± 1.2 | 1335 ± 2 | 1359 ± 3 | 1383 ± 3 | 1402 ± 3 | 1425 ± 3 | 1445 ± 3
333.15 K, x2 = 0.2501 | 861.39 ± 1.1 | 1254 ± 2 | 1281 ± 2 | 1306 ± 2 | 1331 ± 2 | 1356 ± 2 | 1379 ± 2
333.15 K, x2 = 0.5005 | 798.33 ± 1.1 | 1189 ± 2 | 1220 ± 2 | 1249 ± 2 | 1276 ± 2 | 1302 ± 2 | 1327 ± 2
333.15 K, x2 = 0.7502 | 744.98 ± 1 | 1137 ± 2 | 1174 ± 2 | 1204 ± 2 | 1234 ± 2 | 1263 ± 2 | 1292 ± 2

c1ccc2c(c1)CCCC2 [1,2,3,4-tetrahydronaphthalene] + CCCCCCCCCCCCCCCC
Conditions | mass density, 100 kPa [kg/m3] | speed of sound, 100 kPa [m/s] | speed of sound, 5000 kPa [m/s] | speed of sound, 10000 kPa [m/s] | speed of sound, 15000 kPa [m/s] | speed of sound, 20000 kPa [m/s] | speed of sound, 25000 kPa [m/s]
313.15 K, x2 = 0 | 952.93 ± 1.2 | 1413 ± 2 | 1434 ± 3 | 1455 ± 3 | 1475 ± 3 | 1495 ± 3 | 1513 ± 3
313.15 K, x2 = 0.2491 | 871.85 ± 1.1 | 1346 ± 2 | 1371 ± 2 | 1395 ± 2 | 1418 ± 2 | 1441 ± 2 | 1461 ± 3
313.15 K, x2 = 0.4995 | 820.52 ± 1.1 | 1315 ± 2 | 1342 ± 2 | 1367 ± 2 | 1391 ± 2 | 1414 ± 2 | 1438 ± 2
313.15 K, x2 = 0.75 | 785.3 ± 1 | 1298 ± 2 | 1326 ± 2 | 1352 ± 2 | 1378 ± 2 | 1403 ± 2 | 1427 ± 2
323.15 K, x2 = 0 | 944.99 ± 1.2 | 1374 ± 2 | 1397 ± 3 | 1419 ± 3 | 1439 ± 3 | 1459 ± 3 | 1480 ± 3
323.15 K, x2 = 0.2491 | 864.36 ± 1.1 | 1311 ± 2 | 1337 ± 2 | 1361 ± 2 | 1385 ± 2 | 1408 ± 2 | 1429 ± 2
323.15 K, x2 = 0.4995 | 813.31 ± 1.1 | 1278 ± 2 | 1306 ± 2 | 1333 ± 2 | 1358 ± 2 | 1383 ± 2 | 1406 ± 2
323.15 K, x2 = 0.75 | 778.26 ± 1 | 1262 ± 2 | 1291 ± 2 | 1319 ± 2 | 1345 ± 2 | 1369 ± 2 | 1393 ± 2
333.15 K, x2 = 0 | 937.04 ± 1.2 | 1335 ± 2 | 1359 ± 3 | 1383 ± 3 | 1402 ± 3 | 1425 ± 3 | 1445 ± 3
333.15 K, x2 = 0.2491 | 856.85 ± 1.1 | 1274 ± 2 | 1300 ± 2 | 1326 ± 2 | 1350 ± 2 | 1374 ± 2 | 1396 ± 2
333.15 K, x2 = 0.4995 | 806.07 ± 1.1 | 1242 ± 2 | 1271 ± 2 | 1298 ± 2 | 1325 ± 2 | 1350 ± 2 | 1374 ± 2
333.15 K, x2 = 0.75 | 771.21 ± 1 | 1224 ± 2 | 1253 ± 2 | 1282 ± 2 | 1309 ± 2 | 1335 ± 2 | 1361 ± 2
